According to patent publication US10053445B2, “Photocleavable chemical inducers of dimerization (CID) and methods of use” (Children's Medical Center Corporation, priority 2013, dated 2018):

Columns and labels:
mutated FKBP = mutated FKBP (Homo sapiens, UniProt P62942, F37V); details: cited from earlier work
COS cells = assay: peroxisome translocation assay (PEX-RFP-FKBP / DHFR-Kif 1a motor domain); assay type: cell-based
Protocol: Preliminary tests of Zapalog efficacy in COS cells were also carried out, using a peroxisome translocation assay adapted from Kapitein et al., 2010 (13) and illustrated in FIG. 4. The FKBP domain is coupled to RFP and a peroxisome-binding domain (PEX). The DHFR domain is fused to the motor domain of the kinesin Kif 1a. In the absence of a CID to couple these two proteins, the peroxisomes are stationary and located near the nucleus while the motor (visualized by immunocytochemistry) is diffuse in the cytosol (FIG. 4 DMSO). […] In a live-imaging experiment (FIG. 5), the addition of Zapalog initiated clear movement of the peroxisomes in less than 2 minutes. The dispersal of peroxisomes was reversed by exposure to a 405 nm laser. […] 5) the affinity of Zapalog in vivo is high enough to permit the transport of an organelle by a tethered motor. 6) Zapalog is photo-cleavable in vivo by 405 nm light. […] The experiments described herein seek to characterize Zapalog in sufficient detail to enable its use as a photo-cleavable CID. In particular, experiments were designed to determine the kinetics of Zapalog-induced dimerization and cleavage and whether it could be used to recreate a fully functional split kinesin for studies of motor interactions.

COST cells = assay: YFP reporter relocalization to outer mitochondrial membrane (YFP-DHFR / Tom20-mCherry-FKBP); assay type: cell-based
Description: In one set of experiments, Zapalog's efficacy as a dimerizing agent and the efficacy of light-induced cleavage was examined in simple assays of subcellular localization of a YFP reporter adapted from Komatsu et al., (Komatsu et al. Nature Methods 7: 206-8) and illustrated in FIG. 7 (optionally, a GFP or other reporter could have been used). An assay of Zapalog function was developed based on tethering a YFP reporter to the outer mitochondrial membrane of COST cells. In this assay, the YFP reporter was fused to the DHFR domain and, by default, was cytosolic. The FKBP domain was bound to the outer membrane of mitochondria with the N-terminus sequence of Tom20. The FKBP construct was tagged with mCherry. […] Subsequent 405 nm illumination caused immediate (<5 sec) release of YFP back to the cytosol. This redistribution was followed in video microscopy and quantified as a ratio of membrane bound to cytoplasmic fluorescence intensity

[1] = HPLC analysis of Zapalog before and after exposure to 405 nm light; assay type: physicochemical; details: after exposure to 405 nm light
Protocol: Zapalog was synthesized and 10 mg of TLC purified material was determined to be >98% pure by LCMS/HPLC and containing less than 0.1% of the monomeric ligands TMP and SLF.

[2] = molecular target: FK506 Binding Protein (FKBP) (Homo sapiens, UniProt P62942); details: ligand independently; cited from earlier work
Sequence of FK506 Binding Protein (FKBP) (P62942 whole entry): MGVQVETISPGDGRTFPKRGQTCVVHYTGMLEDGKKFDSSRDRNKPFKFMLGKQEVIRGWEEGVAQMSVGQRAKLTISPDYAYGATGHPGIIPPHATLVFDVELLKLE

Sequence of mutated FKBP (P62942 2-108 F37V limits assumed): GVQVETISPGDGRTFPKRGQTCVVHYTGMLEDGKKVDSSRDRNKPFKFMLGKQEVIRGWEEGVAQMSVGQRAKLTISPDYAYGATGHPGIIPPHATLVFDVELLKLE

CCC(C(=O)N1CCCCC1C(=O)O[C@H](CCc1ccc(OC)c(OC)c1)c1cccc(OCC(=O)O)c1)c1cc(OC)c(OC)c(OC)c1 (stereo partly drawn) [SLF′]
Kd (mutated FKBP): 94 pM

CCC(C)(C)C(=O)C(=O)N1CCCC[C@H]1C(=O)O[C@H](CCc1ccc(OC)c(OC)c1)c1cccc(NC(=O)CCCOc2cc([N+](=O)[O-])c(C(C)OCCOc3c(OC)cc(Cc4cnc(N)nc4N)cc3OC)cc2OC)c1 (stereo partly drawn) [Zapalog]
binding to DHFR and FKBP domains in vivo (COS cells): can bind to the DHFR and FKBP domains in vivo
heterodimerization (COS cells): can cause heterodimerization
toxicity to cells (COS cells): not toxic to cells
translocation of motor domain to peroxisomes and redistribution of peroxisomes (COS cells; 1 uM, in the dark, COS cells): caused the translocation of the motor domain to the peroxisomes and the redistribution of the peroxisomes to the periphery of the cell
effect of exposure of treated cells to light (COS cells; COS cells, light after CID addition): caused the motor to detach from peroxisomes and resume its diffuse distribution
time to clear movement of peroxisomes after addition (COS cells; live imaging): less than 2 minutes
dispersal of peroxisomes after 405 nm laser (COS cells; live imaging, 405 nm laser): reversed
time to relocalization of YFP to the mitochondrial surface (COST cells; 1 μM in the dark): 4 to 5 min
time to release of YFP back to the cytosol (COST cells; subsequent 405 nm illumination): < 5 s
photolytic cleavage by HPLC [1]: complete photolytic cleavage

CCC(C)(C)C(=O)C(=O)N1CCCCC1C(=O)OC(CCc1ccc(OC)c(OC)c1)c1cccc(N)c1 (stereo not drawn) [SLF]
affinity [2]: ~1 nM
